We go through three molecules from article PMC3183289 (Bioorganic & medicinal chemistry, 2011).

Each structure is given as a SMILES string. Like-named read-outs stand apart in the source and are kept apart here.

The target in experiment [1] is T1, recombinant mPGES-1 (Homo sapiens, UniProt O14684).
T1 sequence (O14684 1-152): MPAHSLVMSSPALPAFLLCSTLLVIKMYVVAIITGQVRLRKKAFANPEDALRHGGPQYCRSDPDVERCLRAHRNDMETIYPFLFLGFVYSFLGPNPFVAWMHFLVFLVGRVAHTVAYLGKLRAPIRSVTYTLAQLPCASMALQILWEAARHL
The experiment can be described thus: in vitro mPGES-1 enzyme activity assay. The format is biochemical. The following applies: −RTln(Kd) ≈ −RTln(IC50), from measured IC50.

Experiment [2] deals with mPGES-1. The note with it: cited from earlier work.

For `COCCN(c1ccc(/C=C2\S/C(=N\c3ccccc3)N(C(C)C(=O)O)C2=O)cc1)c1ccccc1OC` (stereo not drawn) [Compound 3], the “ΔGbind^Exp” value in experiment [1] was -7.44 kcal/mol.

On to `CCCCC/C=C\C\C=C/C=C/C=C/[C@@H](SC[C@H](NC(=O)CC[C@H](N)C(=O)O)C(=O)NCC(=O)O)[C@@H](O)CCCC(=O)O` [Leukotriene C4], for which, in experiment [2] (probably by competing with glutathione), the IC50 (commonly the concentration that gives 50% inhibition) was “micromolar”. Regarding `CSc1ccc(/C=C2/C(C)=C(CC(=O)O)c3cc(F)ccc32)cc1`, the IC50 in experiment [2] was 80 µM.
